System: blood flow volume of a hindlimb of the rat
Assay: Hindlimb blood flow volume of rats after oral administration, measured with a two-dimensional laser blood flow meter
Assay type: in vivo
Conditions: male SD rat hindlimb; for Increase in blood flow volume: one hour after oral administration vs before administration, average of three rats; for Increase in blood flow volume / Change in hindlimb blood flow volume between before and after the administration (in words): 10-hydroxydecanoic acid 120 mg/kg, 10-H2DA 420 mg/kg, Toki-shakuyaku-san 3750 mg/kg; for Change in hindlimb blood flow volume between before and after the administration (in words): one hour after oral administration
Protocol: As a test animal, a 6 to 8 week-old male rat Slc: SD rat (Japan SLC, Inc.) was used. As test substances, 10-hydroxydecanoic acid (manufactured by Combi-Blocks Inc.), trans-10-hydroxy-2-decenoic acid (referred to as “10-H2DA” hereinafter, manufactured by HANGZOU EASTBIOPHARM CO., LTD.) and Toki-shakuyaku-san (manufactured by TSUMURA & CO.) were used. A 0.5% w/v aqueous solution of methyl cellulose 400 (Wako Pure Chemical Industries, Ltd.) was prepared, and in the aqueous solution, the test substances were each suspended, thereby preparing a 12 mg/mL solution of 10-hydroxydecanoic acid, a 42 mg/ml solution of 10-H2DA and a 375 mg/ml solution of Toki-shakuyaku-san. The test animals were divided into four groups each consisting of three animals, and these groups were referred to as a 10-hydroxydecanoic acid group, a 10-H2DA group, a Toki-shakuyaku-san group and a control group. Using a gastric tube, the respective methyl cellulose aqueous solutions were orally administered to the 10-hydroxydecanoic acid group in such a desired amount that the amount of 10-hydroxydecanoic acid was 120 mg/kg, to the 10-H2DA group in such a desired amount that the amount of 10-H2DA was 420 mg/kg, and to the Toki-shakuyaku-san group in such a desired amount that the amount of Toki-shakuyaku-san was 3750 mg/kg. To the control group, a control substance (0.5% w/v methyl cellulose aqueous solution 10 mL/kg) was orally administered using a gastric tube.
Before the administration of the test substance and after one hour from the administration, a blood flow volume of a hindlimb of the rat was measured in an awaking and non-fixed state. For the measurement, a two-dimensional laser blood flow meter OZ-1 (manufactured by OMEGAWAVE INC.) was used. An increase in the blood flow volume (average value of three rats) based on that before the administration of each of the control group, the 10-hydroxydecanoic acid group, the 10-H2DA group and the Toki-shakuyaku-san group after one hour from the administration is shown in Table 1.

Compound	Difference in blood flow volume between the control group and the treated group (one hour after oral administration of 120 mg/kg, FIG. 1)	Increase in blood flow volume [arbitrary unit]	Change in hindlimb blood flow volume between before and after the administration (in words)
O=C(O)CCCCCCCCCO [10-Hydroxydecanoic acid, 10-hydroxydecanoic acid]	a significant difference (P=0.01)	5.8	a remarkable increase in the blood flow volume
O=C(O)/C=C/CCCCCCCO [10-H2DA, trans-10-hydroxy-2-decenoic acid, reference compound]	–	2.2	a certain increase in the blood flow volume
